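48-hour exposure; five concentrations; linearly interpolated endpoints. GI50: concentration for 50% inhibition of growth.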 Active and inactive are the calls of the source. Rule as the data show it: active = GI50 up to about 1.1 µM and inactive = higher.
Key:
Test in all cases: growth of human tumour cells (NCI), 48 h
RXF 393 = system: RXF 393
CCRF-CEM = system: CCRF-CEM
SF-539 = system: SF-539
OVCAR-8 = system: OVCAR-8
SK-OV-3 = system: SK-OV-3
Hs-578T = system: Hs-578T
K562 = system: K562
MDA-MB-435 = system: MDA-MB-435
A549 = system: A549
COLO 205 = system: COLO 205
DU-145 = system: DU-145
NCI-H522 = system: NCI-H522
KM12 = system: KM12
SR = system: SR
HT-29 = system: HT-29
UACC-257 = system: UACC-257
SK-MEL-5 = system: SK-MEL-5
HCT-116 = system: HCT-116
Malme-3M = system: Malme-3M
CAKI-1 = system: CAKI-1
MDA-N = system: MDA-N
EKVX = system: EKVX
NCI-H460 = system: NCI-H460
A498 = system: A498
BT-549 = system: BT-549
HCC 2998 = system: HCC 2998
SF-268 = system: SF-268
M14 = system: M14
NCI-H23 = system: NCI-H23
OVCAR-5 = system: OVCAR-5
NCI-H226 = system: NCI-H226
UO-31 = system: UO-31
SNB-75 = system: SNB-75
OVCAR-3 = system: OVCAR-3
RPMI-8226 = system: RPMI-8226
MDA-MB-231 = system: MDA-MB-231
ACHN = system: ACHN
HL-60 = system: HL-60
U-251 = system: U-251
SW-620 = system: SW-620
LOX IMVI = system: LOX IMVI
SNB-19 = system: SNB-19
UACC-62 = system: UACC-62
SN12C = system: SN12C
T47D = system: T47D
SK-MEL-2 = system: SK-MEL-2
SF-295 = system: SF-295
HCT-15 = system: HCT-15
786-0 = system: 786-0
HOP-92 = system: HOP-92
PC-3 = system: PC-3
MCF7 = system: MCF7
SK-MEL-28 = system: SK-MEL-28
TK-10 = system: TK-10
OVCAR-4 = system: OVCAR-4
HOP-62 = system: HOP-62
IGROV-1 = system: IGROV-1
MOLT-4 = system: MOLT-4

For `C=C(C)[C@@H]1CC[C@@H]2C(=CC[C@]3(C)C([C@H](C)CC/C=C(/C)C(=O)O)CC[C@@]23C)[C@@]1(C)CCC(=O)O` (stereo not given in full), the GI50 (RXF 393) was 19.4 µM (inactive), the GI50 (CCRF-CEM) was 21.9 µM (inactive) and the GI50 (SF-539) was 30.4 µM (inactive). The GI50 (OVCAR-8) was 34.4 µM (inactive), the GI50 (SK-OV-3) was 37.7 µM (inactive) and the GI50 (Hs-578T) was 33.3 µM (inactive). The GI50 (K562) was 33 µM (inactive), the GI50 (MDA-MB-435) was 29.2 µM (inactive) and the GI50 (A549) was 36.8 µM (inactive). The GI50 (COLO 205) was 22.6 µM (inactive), the GI50 (DU-145) was 24.2 µM (inactive) and the GI50 (NCI-H522) was 22.7 µM (inactive). For the same molecule, the GI50 (KM12) was 23.4 µM (inactive), the GI50 (SR) was 21.3 µM (inactive) and the GI50 (HT-29) was 21.7 µM (inactive). The GI50 (UACC-257) was 23.8 µM (inactive), the GI50 (SK-MEL-5) was 16.9 µM (inactive) and the GI50 (HCT-116) was 22.3 µM (inactive). For the same molecule, the GI50 (Malme-3M) was 25.5 µM (inactive), the GI50 (CAKI-1) was 23.8 µM (inactive) and the GI50 (MDA-N) was 28.3 µM (inactive). For the same molecule, the GI50 (EKVX) was 36.3 µM (inactive), the GI50 (NCI-H460) was 20.4 µM (inactive) and the GI50 (A498) was 33.3 µM (inactive). The GI50 (BT-549) was 21.6 µM (inactive), the GI50 (HCC 2998) was 18.8 µM (inactive) and the GI50 (SF-268) was 37.7 µM (inactive). For the same molecule, the GI50 (M14) was 29.5 µM (inactive), the GI50 (NCI-H23) was 24 µM (inactive) and the GI50 (OVCAR-5) was 30.5 µM (inactive). The GI50 (NCI-H226) was 21.3 µM (inactive), the GI50 (UO-31) was 16.7 µM (inactive) and the GI50 (SNB-75) was 34.4 µM (inactive). The GI50 (OVCAR-3) was 19.9 µM (inactive), the GI50 (RPMI-8226) was 22.9 µM (inactive) and the GI50 (MDA-MB-231) was 25.2 µM (inactive). The GI50 (ACHN) was 19 µM (inactive), the GI50 (HL-60) was 26.8 µM (inactive) and the GI50 (U-251) was 24.5 µM (inactive). For the same molecule, the GI50 (SW-620) was 29 µM (inactive), the GI50 (LOX IMVI) was 19.2 µM (inactive) and the GI50 (SNB-19) was 34 µM (inactive). The GI50 (UACC-62) was 20.4 µM (inactive), the GI50 (SN12C) was 33.4 µM (inactive) and the GI50 (T47D) was 45.8 µM (inactive). The GI50 (SK-MEL-2) was 20.2 µM (inactive), the GI50 (SF-295) was 30.3 µM (inactive) and the GI50 (HCT-15) was 21.3 µM. For the same molecule, the GI50 (786-0) was 21.8 µM (inactive), the GI50 (HOP-92) was 19.2 µM (inactive) and the GI50 (PC-3) was 24.9 µM (inactive). The GI50 (MCF7) was 39.6 µM (inactive), the GI50 (SK-MEL-28) was 27.9 µM (inactive) and the GI50 (TK-10) was 36.6 µM (inactive). The GI50 (OVCAR-4) was 36.6 µM (inactive), the GI50 (HOP-62) was 52.8 µM (inactive) and the GI50 (IGROV-1) was 28.2 µM (inactive).

With `COc1ccc2c(c1OC)C[C@@H]1c3c(cc4c(c3-2)OCO4)CCN1C` the GI50 (RXF 393) was 20.5 µM (inactive), the GI50 (CCRF-CEM) was 20.3 µM (inactive) and the GI50 (SF-539) was 19 µM (inactive). For the same molecule, the GI50 (OVCAR-8) was 30.1 µM (inactive), the GI50 (SK-OV-3) was 23.3 µM (inactive) and the GI50 (Hs-578T) was 34.4 µM (inactive). The GI50 (K562) was 20.3 µM (inactive), the GI50 (MDA-MB-435) was 27.5 µM (inactive) and the GI50 (A549) was 40.2 µM (inactive). For the same molecule, the GI50 (COLO 205) was 18.6 µM (inactive), the GI50 (DU-145) was 41.1 µM (inactive) and the GI50 (NCI-H522) was 19.9 µM (inactive). For the same molecule, the GI50 (KM12) was 28.8 µM (inactive), the GI50 (SR) was 31.5 µM (inactive) and the GI50 (HT-29) was 15.8 µM (inactive). The GI50 (UACC-257) was 20 µM (inactive), the GI50 (SK-MEL-5) was 16.7 µM (inactive) and the GI50 (HCT-116) was 20.7 µM (inactive). The GI50 (Malme-3M) was 30.6 µM (inactive), the GI50 (CAKI-1) was 31.2 µM (inactive) and the GI50 (MDA-N) was 44.1 µM (inactive). The GI50 (EKVX) was 20.7 µM (inactive), the GI50 (MOLT-4) was 24.3 µM (inactive) and the GI50 (NCI-H460) was 32.1 µM (inactive). The GI50 (A498) was 19.1 µM (inactive), the GI50 (BT-549) was 23.8 µM (inactive) and the GI50 (HCC 2998) was 21.3 µM (inactive). For the same molecule, the GI50 (SF-268) was 37.1 µM (inactive), the GI50 (M14) was 25.9 µM (inactive) and the GI50 (NCI-H23) was 50.1 µM (inactive). For the same molecule, the GI50 (OVCAR-5) was 59 µM (inactive), the GI50 (NCI-H226) was 18.1 µM (inactive) and the GI50 (UO-31) was 10.8 µM (inactive). The GI50 (SNB-75) was 17.1 µM (inactive), the GI50 (OVCAR-3) was 41.1 µM (inactive) and the GI50 (RPMI-8226) was 18.5 µM (inactive). The GI50 (MDA-MB-231) was 33.7 µM (inactive), the GI50 (ACHN) was 27.5 µM (inactive) and the GI50 (HL-60) was 8.63 µM (inactive). For the same molecule, the GI50 (U-251) was 26.9 µM (inactive), the GI50 (SW-620) was 29.8 µM (inactive) and the GI50 (LOX IMVI) was 15.3 µM (inactive). The GI50 (SNB-19) was 42.9 µM (inactive), the GI50 (UACC-62) was 15.2 µM (inactive) and the GI50 (SN12C) was 42 µM (inactive). For the same molecule, the GI50 (T47D) was 28.8 µM (inactive), the GI50 (SK-MEL-2) was 28.2 µM (inactive) and the GI50 (SF-295) was 15.6 µM (inactive). The GI50 (HCT-15) was 22.6 µM, the GI50 (786-0) was 24.2 µM (inactive) and the GI50 (HOP-92) was 12.3 µM (inactive). For the same molecule, the GI50 (PC-3) was 17.5 µM (inactive), the GI50 (MCF7) was 16.6 µM (inactive) and the GI50 (SK-MEL-28) was 29.2 µM (inactive). The GI50 (TK-10) was 25 µM (inactive), the GI50 (OVCAR-4) was 25.4 µM (inactive) and the GI50 (HOP-62) was 72.8 µM (inactive). The GI50 (IGROV-1) was 25.4 µM (inactive).

In the case of `CN1CCN(C(=S)N(C)C(=O)c2ccc(Cl)cc2)CC1`, the GI50 (RXF 393) is reported as > 100 µM (inactive), the GI50 (CCRF-CEM) is reported as > 100 µM (inactive) and the GI50 (OVCAR-8) is reported as > 100 µM (inactive). For the same molecule, the GI50 (Hs-578T) was > 100 µM (inactive), the GI50 (K562) was > 100 µM (inactive) and the GI50 (MDA-MB-435) was > 100 µM (inactive). The GI50 (A549) was > 100 µM (inactive), the GI50 (COLO 205) was > 100 µM (inactive) and the GI50 (DU-145) was > 100 µM (inactive). For the same molecule, the GI50 (NCI-H522) was > 100 µM (inactive), the GI50 (KM12) was > 100 µM (inactive) and the GI50 (SR) was > 10 µM (inactive). For the same molecule, the GI50 (HT-29) was > 100 µM (inactive), the GI50 (UACC-257) was > 100 µM (inactive) and the GI50 (SK-MEL-5) was > 100 µM (inactive). The GI50 (Malme-3M) was > 100 µM (inactive), the GI50 (MDA-N) was > 100 µM (inactive) and the GI50 (MOLT-4) was > 100 µM (inactive). For the same molecule, the GI50 (NCI-H460) was > 100 µM (inactive), the GI50 (BT-549) was > 100 µM (inactive) and the GI50 (HCC 2998) was > 100 µM (inactive). The GI50 (SF-268) was > 100 µM (inactive), the GI50 (M14) was > 100 µM (inactive) and the GI50 (NCI-H23) was > 100 µM (inactive). The GI50 (OVCAR-5) was > 100 µM (inactive), the GI50 (NCI-H226) was > 100 µM (inactive) and the GI50 (UO-31) was > 100 µM (inactive). For the same molecule, the GI50 (SNB-75) was > 100 µM (inactive), the GI50 (OVCAR-3) was > 100 µM (inactive) and the GI50 (RPMI-8226) was > 100 µM (inactive). The GI50 (MDA-MB-231) was > 100 µM (inactive), the GI50 (ACHN) was 0.132 µM (active) and the GI50 (HL-60) was > 100 µM (inactive). For the same molecule, the GI50 (U-251) was > 100 µM (inactive), the GI50 (SW-620) was > 100 µM (inactive) and the GI50 (LOX IMVI) was > 100 µM (inactive). The GI50 (SNB-19) was > 100 µM (inactive), the GI50 (UACC-62) was > 100 µM (inactive) and the GI50 (SN12C) was > 100 µM (inactive). For the same molecule, the GI50 (T47D) was > 100 µM (inactive), the GI50 (SK-MEL-2) was > 100 µM (inactive) and the GI50 (SF-295) was > 100 µM (inactive). The GI50 (HCT-15) was over 100 µM, the GI50 (786-0) was > 100 µM (inactive) and the GI50 (HOP-92) was > 100 µM (inactive). The GI50 (MCF7) was > 100 µM (inactive), the GI50 (SK-MEL-28) was > 100 µM (inactive) and the GI50 (TK-10) was > 100 µM (inactive). For the same molecule, the GI50 (OVCAR-4) was > 100 µM (inactive) and the GI50 (IGROV-1) was > 100 µM (inactive).

Source: ChEMBL document CHEMBL1201862, “PubChem BioAssay data set” (2004)
